Results on three compounds are retold here after article PMC8001898, “New Triterpene Glycosides from the Far Eastern Starfish Solaster pacificus and Their Biological Activity” (Biomolecules, 2021).

The test system of series [1] is human embryonic kidney HEK 293 cells. Kind of series: MTS cell viability assay, HEK 293 cells. The format is cell-based. The settings on record: read-out: Inhibiting Concentration, (IC50), HEK 293, a. As to the method: (§1) Human embryonic kidney HEK 293 cells (ATCC® no. CRL-1573™), colorectal carcinoma HT-29 cells (ATCC® no. HTB-38™), melanoma RPMI-7951 cells (ATCC® no. HTB-66), and breast cancer MDA-MB-231 cells (ATCC® HTB-26™) were obtained from the American Type Culture Collection (Manassas, VA, USA). […] The cell cultures were maintained at 37 °C in humidified atmosphere containing 5% CO2. […] After three passages the cells were used for the experiments. […] Then samples were vacuum evaporated and dissolved in DMSO to their stock concentrations of 20 mM. Cells (1.0 × 10^4) were seeded in 96-well plates (Jet Biofil, Guangzhou, China) and cultured in 200 µL of complete culture medium for 24 h at 37 °C in 5% CO2 incubator.

The subject of series [2] is HT-29, RPMI-7951, and MDA-MB-231 cells. Kind of series: Soft agar colony formation assay, statements on all types of cancer cells. The format is cell-based, human. The following applies: nontoxic concentrations. As to the method:
(§2) Compounds 1–6 were dissolved in sterile DMSO to prepare stock concentrations of 20 mM. Cells were treated with serially diluted compounds 1–6 (culture medium used as diluent) to give the intended final concentrations. The vehicle control is the cells treated with equivalent volume of DMSO (less than 0.5%) for all presented experiments.
(§3) Human cancer cells (2.4 × 10^4/mL) were seeded into 6-well plate and treated with compounds 1–6 (0.1, 0.5, and 1 µM) or cisplatin (3 µM) in 1 mL of 0.3% BME agar containing 10% FBS, 2 mM L-glutamine, and 25 µg/mL gentamicin. The cultures were maintained in a 37 °C, 5% CO2 incubator for 14 days, and the cell colonies were scored using a Motic microscope AE 20 (XiangAn, Xiamen, China) and ImageJ software bundled with 64-bit Java 1.8.0_112 (NIH, Bethesda, MD, USA).
Figure 3 Effect of compounds 1–6 on colony formation of human colorectal carcinoma HT-29, melanoma RPMI-7951, and breast cancer MDA-MB-231 cell lines. HT-29, RPMI-7951, and MDA-MB-231 cells (2.4 × 10^4 /mL) treated with/without investigated 1–6 (0.1, 0.5, and 1 µM) and subjected into a soft agar. The culture was maintained at 37 °C in a 5% CO2 atmosphere for 2 weeks. The colonies were counted under a microscope with the aid of the ImageJ software program (n = 6 for control and each compound, n—quantity of photos). […]

In series [3] the test system is melanoma RPMI-7951 cells. The series is described as follows: Soft agar colony formation assay, RPMI-7951 cells. The format is cell-based, human. The following applies: for decrease of number of colonies of RPMI-7951: 1 µM, 14 days. As to the method: as §2, §3
(§4) Figure 3 Effect of compounds 1–6 on colony formation of human colorectal carcinoma HT-29, melanoma RPMI-7951, and breast cancer MDA-MB-231 cell lines. HT-29, RPMI-7951, and MDA-MB-231 cells (2.4 × 10^4 /mL) treated with/without investigated 1–6 (0.1, 0.5, and 1 µM) and subjected into a soft agar. The culture was maintained at 37 °C in a 5% CO2 atmosphere for 2 weeks. The colonies were counted under a microscope with the aid of the ImageJ software program (n = 6 for control and each compound, n—quantity of photos). The asterisks (* p < 0.05, ** p < 0.01, *** p < 0.001) indicate a significant decrease in colony formation in cells treated with compounds compared with the nontreated cells (control).

In series [4] the test system is breast cancer MDA-MB-231 cells. Kind of series: Soft agar colony formation assay, MDA-MB-231 cells. The following applies: for decrease of number of colonies of MDA-MB-231: 1 µM, 14 days. The format is cell-based, human. As to the method: as §2, §3, §4
Series [5] has as its system HEK 293, HT-29, RPMI-7951, and MDA-MB-231 cells. Kind of series: MTS cell viability assay, statements on all tested cell lines. The settings on record: individual compounds, 24 h, concentrations range up to 40 µM. The format is cell-based, human. (Tetrazolium assays rely on reduction of a dye to a coloured formazan, in cell work by metabolically active cells.)
Method: Cells (1.0 × 10^4) were seeded in 96-well plates (Jet Biofil, Guangzhou, China) and cultured in 200 µL of complete culture medium for 24 h at 37 °C in 5% CO2 incubator. […] Cells were also treated by cisplatin (positive control) at 1, 5, 10, 50, 100 µM for 24 and 48 h. Subsequently, the cells were incubated with 15 µL MTS reagent for 3 h, and the absorbance of each well was measured at 490/630 nm using Power Wave XS microplate reader (BioTek, Wynusky, VT, USA).
The test system of series [6] is colorectal carcinoma HT-29 cells. Kind of series: Soft agar colony formation assay, HT-29 cells. The format is cell-based, human. The following applies: for decrease of number of colonies of HT-29: 1 µM, 14 days. As to the method: as §2, §3, §4
For series [7] the test system is unchanged. Kind of series: MTS cell viability assay, HT-29 cells. The format is cell-based, human. The following applies: read-out: Inhibiting Concentration, (IC50), HT-29, a. As to the method:
as §1

Series [8] concerns melanoma RPMI-7951 cells. Kind of series: MTS cell viability assay, RPMI-7951 cells. The format is cell-based, human. The following applies: read-out: Inhibiting Concentration, (IC50), RPMI-7951, a. As to the method:
as §1

Series [9] has as its system breast cancer MDA-MB-231 cells. Kind of series: MTS cell viability assay, MDA-MB-231 cells. The format is cell-based, human. The following applies: read-out: Inhibiting Concentration, (IC50), MDA-MB-231, a. As to the method: as §1
Setting [10] is: Homo sapiens, HEK293, 24 h, individual compounds, 24 h, MTS.
Where [11] appears, read: Homo sapiens, HT-29, 24 h, individual compounds, 24 h, MTS.
Setting [12] is: Homo sapiens, RPMI-7951, 24 h, individual compounds, 24 h, MTS.
The mark [13] stands for this setting: Homo sapiens, MDA-MB-231, 24 h, individual compounds, 24 h, MTS.
Setting [14] is: concentrations of 0.5 µM and 1 µM, soft agar.
[15] abbreviates: nontoxic concentration of 0.5 µM.
Setting [16] is: individual compounds, 24 h, MTS.

Where two headings read alike, the source gives them in different places.

For the compound `CO[C@@H]1[C@@H](O)[C@H](O[C@@H]2[C@@H](O)[C@H](O[C@H]3[C@H](O)[C@@H](O[C@@H]4OC[C@@H](O)[C@H](O)[C@H]4O)[C@H](O[C@H]4[C@H](O[C@H]5CC[C@]6(C)[C@@H]7CCC89C(=O)O[C@@](C)(/C=C/C=O)[C@H]8[C@@H](OC(C)=O)C[C@@]9(C)C7=CC[C@H]6C5(C)C)OC[C@@H](O)[C@@H]4O)O[C@@H]3C)O[C@H](CO)[C@H]2O)OC[C@H]1O` (stereo partly drawn) [Compound 1, 3β-O-{3-O-methyl-β-D-xylopyranosyl-(1→3)-β-D-glucopyranosyl-(1→4)-[β-D-xylopyranosyl-(1→2)]-β-D-quinovopyranosyl-(1→2)-β-D-xylopyranosyl}-16β-acetoxy-25,26,27-trinorholosta-7,22-dien-24-al], the IC50 in series [1] (setting [10]), in [7] (setting [11]), in series [8] (setting [12]) and in [9] (setting [13]) was more than 40 µM each time. Also, the “colony formation of all types of cancer cells (in words)” value in series [2] was “slightly inhibited”. Besides, the “decrease of number of colonies of RPMI-7951” value in series [3] (soft agar) amounted to 27%. In series [4] (soft agar), the “decrease of number of colonies of MDA-MB-231” value worked out at 28%. Besides, the “cytotoxic activity against the tested cell lines (in words)” value in series [5] is recorded as “nontoxic”. Further, the “decrease of number of colonies of HT-29” value in series [6] (soft agar) was determined as 21%.
With `CO[C@@H]1[C@@H](O)[C@H](O[C@@H]2[C@@H](O)[C@H](O[C@H]3[C@H](O)[C@@H](O[C@@H]4OC[C@@H](O)[C@H](O)[C@H]4O)[C@H](O[C@H]4[C@H](O[C@H]5CC[C@]6(C)[C@@H]7CCC89C(=O)O[C@@](C)(/C=C\C=C(C)C)[C@H]8[C@@H](OC(C)=O)C[C@@]9(C)C7=CC[C@H]6C5(C)C)OC[C@@H](O)[C@@H]4O)O[C@@H]3C)O[C@H](CO)[C@H]2O)OC[C@H]1O` (stereo partly drawn) [Compound 4, cucumarioside C1], the IC50 in series [1] (Homo sapiens, HEK293, 24 h) was 5.5 ± 0.3 µM; in series [7] (Homo sapiens, HT-29, 24 h) it was 5.3 ± 0.2 µM; in series [8] (Homo sapiens, RPMI-7951, 24 h) it was 5.8 ± 1.2 µM; in series [9] (Homo sapiens, MDA-MB-231, 24 h) it was 3.6 ± 0.2 µM. Moreover, in series [3] (setting [14]), the “colony growth of RPMI-7951 cells (in words)” value is recorded as “almost completely suppressed”. Moreover, in [3] (setting [15]), the “colony formation of RPMI-7951 cells (in words)” value is given as “almost completely suppressed”. Further, the “colony growth of MDA-MB-231 cells (in words)” value in series [4] (setting [14]) is on record as “almost completely suppressed”. Also, the “colony formation of MDA-MB-231 cells (in words)” value in series [4] (setting [15]) was “almost completely suppressed”. Also, the “colony growth of HT-29 cells (in words)” value in series [6] (setting [14]) is on record as “almost completely suppressed”. Besides, the “colony formation of HT-29 cells (in words)” value in [6] (setting [15]) is “almost completely suppressed”.
As to `C=C(C)[C@H]1[C@@H]2C[C@@]3(C)C4=CC[C@H]5C(C)(C)[C@@H](O[C@@H]6OC[C@@H](O)[C@H](O)[C@H]6O[C@@H]6O[C@H](C)[C@@H](O[C@@H]7O[C@H](CO)[C@@H](O)[C@H](O[C@@H]8OC[C@@H](O)[C@H](OC)[C@H]8O)[C@H]7O)[C@H](O)[C@H]6O[C@@H]6OC[C@@H](O)[C@H](O)[C@H]6O)CC[C@]5(C)[C@@H]4CCC13C(=O)O2` [Compound 2, 3β-O-{3-O-methyl-β-D-xylopyranosyl-(1→3)-β-D-glucopyranosyl-(1→4)-[β-D-xylopyranosyl-(1→2)]-β-D-quinovopyranosyl-(1→2)-β-D-xylopyranosyl}-23,24,25,26,27-pentanorlanosta-7,20(22)-diene-18(16)-lactone], the IC50 in series [1] (setting [10]) was more than 20 µM; in [1] (setting [16]), 28.6 ± 2.1 µM; in [7] (setting [11]) it was more than 20 µM; in series [7] (setting [16]) it was 26.2 ± 2.5 µM; in series [8] (setting [12]), more than 20 µM; in [8] (setting [16]), 20.4 ± 1.6 µM. Further, the IC50 is more than 20 µM in series [9] (setting [13]) and 21.5 ± 0.5 µM in series [9] (setting [16]). In addition, in series [3] (soft agar), the “decrease of number of colonies of RPMI-7951” value was determined as 26%. The “decrease of number of colonies of MDA-MB-231” value in [4] (soft agar) amounted to 25%. Further, the “decrease of number of colonies of HT-29” value in series [6] (soft agar) was 22%.
